{"source": "patent EP1016409B1", "about": "“FREEZE DRIED COMPOSITION COMPRISING GLYCOSPHINGOLIPIDS” (KIRIN BEER KABUSHIKI KAISHA, priority 1997, dated 1998)", "assay_type_in_all_cases": "physicochemical", "key": {"[1]": {"assay": "Addition effects of sodium deoxycholate and histidine in the absence of a sugar", "conditions": "lyophilized, KRN7000 200 µg/ml, Polysorbate 20 0.5%, 1%, no sugar, 50°C", "protocol": "Addition effects of sodium deoxycholate and histidine in the absence of a sugar as the excipient was examined.\n(§1) First, Polysorbate 20 was dissolved in distilled water in a concentration of 0.5%, and histidine or sodium deoxycholate in a concentration of 1.0%. Next, 20 mg of the active component (KRN7000) was weighed and stirred in 100 ml of the solvents in a heated bath to 80°C for 20 minutes in order to form a solution. After cooling with running water, the mixture was filtered through a 0.22 µm filter, and transparent colorless glass vials having a volume of 5 ml were charged with a 1 ml portion of each of a variety of solutions thus obtained and subjected to lyophilization. Lyophilization was carried out under the condition of preliminary freezing at -40°C for 2 hours and drying at -20°C for 24 hours, 10°C for 12 hours, and finally at 25°C for 5 hours to give the lyophilized product. The degree of vacuum was set at 0.1 Torr or less during drying step.\nAfter the lyophilization step, the lyophilized composition thus obtained was stored at 50°C. After storage for 3 days or 2 weeks, the lyophilized composition was reconstituted in 1 ml of distilled water for injection, left standing for 30 minutes, and solubility was judged when the foams generated on reconstitution disappeared. […]"}, "[2]": {"assay": "Selection of a solvent for the active component: solubility judged by naked eye", "protocol": "First, […] of the active component (KRN7000) was weighed and stirred in 100 ml of a variety of solvents (Table 3) in a heated bath to 80°C for 20 minutes in order to form a solution having a concentration of 10 µg/ml. With respect to the solvents which were judged to have successfully dissolved 10 µg/ml of the active component, dissolution was further tried in the same manner as above in order to form a solution having a concentration of 100 µg/ml. With respect to the solvents which were judged to have successfully dissolved 100 µg/ml of the active component, dissolution was further tried in the same manner as above in order to form a solution having a concentration of 200 µg/ml. After cooling with running water, the solubility of the component was judged.\nThe solubility of the component was judged by the test described below. First, transparent colorless glass vials having a volume of 5 ml were charged with about 1.5 ml portion of each sample and sealed up. The vial was cleaned outside and placed beneath the white light source in a darkroom for observation with naked eye at the position of a luminous intensity of about 5,000 lux. When the sample was clear with no precipitates, it was judged that the active component was dissolved."}, "[3]": {"assay": "Excipient appropriate to lyophilization 2: re-solubility after storage", "conditions": "lyophilized, KRN7000 200 µg/ml, Polysorbate 20 0.5%, 25°C", "protocol": "The lyophilized preparations having mannitol and sucrose added thereto were observed on their variation with the passage of time.\nas §1, with “the saccharides were dissolved” for “histidine or sodium deoxycholate”, “such concentrations as listed in Table 7.” for “a concentration of 1.0%.”\nAfter the lyophilization step, the lyophilized composition was stored at 25°C. After storage for 1 month, the lyophilized composition was reconstituted in 1 ml of distilled water for injection, left standing for 30 minutes, and solubility was judged when the foams generated on reconstitution disappeared. The samples judged in solution were further stored, and judged again of their solubility after 4 months.\n(§2) The solubility was judged by cleaning the outside of the vial and placing it beneath the white light source in a darkroom for observation with naked eye at the position of a luminous intensity of about 5,000 lux. When the sample was clear with no precipitates, it was judged that the active component was dissolved."}, "[4]": {"assay": "Excipient appropriate to lyophilization 1: re-solubility immediately after lyophilization", "conditions": "KRN7000 200 µg/ml, Polysorbate 20 0.5%", "protocol": "A variety of monosaccharides and disaccharides were used for examination of excipients of the lyophilized preparation. In this context, the active component (KRN7000) was set at the concentration of 200 µg/ml, and Polysorbate 20 which is used only in a limited amount from the viewpoint of safety was set at the concentration of 0.5% in the following examination.\nas §1, with “the saccharides were dissolved” for “histidine or sodium deoxycholate”, “such concentrations as listed in Table 6.” for “a concentration of 1.0%.”\nAfter the lyophilization step, the lyophilized composition was reconstituted in 1 ml of distilled water for injection, left standing for 30 minutes, and solubility was judged when the foams generated on reconstitution disappeared.\nas §2"}}, "data": [{"smiles": "CCCCCCCCCCCCCCCCCCCCCCCCCC(=O)N[C@@H](CO[C@H]1O[C@H](CO)[C@H](O)[C@H](O)[C@H]1O)[C@H](O)[C@H](O)CCCCCCCCCCCCCC", "note": "[KRN7000, (2S,3S,4R)-1-(α-D-galactopyranosyloxy)-2-hexacosanoylamino-3,4-octadecanediol]", "values": [{"measurement": "Re-solubility after storage (by naked eye)", "setting": "[1]; Histidine, 2 weeks", "value": "+ (+ not dissolved (or deposited))"}, {"measurement": "Re-solubility after storage (by naked eye)", "setting": "[1]; Sodium deoxycholate, 3 days", "value": "+ (+ not dissolved (or deposited))"}, {"measurement": "Judgment of solubility (by naked eye)", "setting": "[2]; solvent 0.5% Cremophor, KRN7000 10 µg/ml", "value": "+ (+ not dissolved (or deposited))"}, {"measurement": "Judgment of solubility (by naked eye)", "setting": "[2]; solvent 0.5% HCO 50, KRN7000 10 µg/ml", "value": "+ (+ not dissolved (or deposited))"}, {"measurement": "Judgment of solubility (by naked eye)", "setting": "[2]; solvent 0.5% HCO 60, KRN7000 10 µg/ml", "value": "+ (+ not dissolved (or deposited))"}, {"measurement": "Judgment of solubility (by naked eye)", "setting": "[2]; solvent 0.5% Polyoxamer 188, KRN7000 10 µg/ml", "value": "+ (+ not dissolved (or deposited))"}, {"measurement": "Judgment of solubility (by naked eye)", "setting": "[2]; solvent 0.5% Polysorbate 20, KRN7000 10 µg/ml", "value": "- (- dissolved)"}, {"measurement": "Judgment of solubility (by naked eye)", "setting": "[2]; solvent 0.5% Polysorbate 20, KRN7000 100 µg/ml", "value": "- (- dissolved)"}, {"measurement": "Judgment of solubility (by naked eye)", "setting": "[2]; solvent 0.5% Polysorbate 20, KRN7000 200 µg/ml", "value": "- (- dissolved)"}, {"measurement": "Judgment of solubility (by naked eye)", "setting": "[2]; solvent 0.5% Polysorbate 80, KRN7000 10 µg/ml", "value": "- (- dissolved)"}, {"measurement": "Judgment of solubility (by naked eye)", "setting": "[2]; solvent 0.5% Polysorbate 80, KRN7000 100 µg/ml", "value": "+ (+ not dissolved (or deposited))"}, {"measurement": "Judgment of solubility (by naked eye)", "setting": "[2]; solvent 1N HCl, KRN7000 10 µg/ml", "value": "+ (+ not dissolved (or deposited))"}, {"measurement": "Judgment of solubility (by naked eye)", "setting": "[2]; solvent 1N NaOH, KRN7000 10 µg/ml", "value": "+ (+ not dissolved (or deposited))"}, {"measurement": "Judgment of solubility (by naked eye)", "setting": "[2]; solvent Distilled water, KRN7000 10 µg/ml", "value": "+ (+ not dissolved (or deposited))"}, {"measurement": "Judgment of solubility (by naked eye)", "setting": "[2]; solvent Ethanol, KRN7000 10 µg/ml", "value": "- (- dissolved)"}, {"measurement": "Judgment of solubility (by naked eye)", "setting": "[2]; solvent Ethanol, KRN7000 100 µg/ml", "value": "- (- dissolved)"}, {"measurement": "Judgment of solubility (by naked eye)", "setting": "[2]; solvent Ethanol, KRN7000 200 µg/ml", "value": "- (- dissolved)"}, {"measurement": "Judgment of solubility (by naked eye)", "setting": "[2]; solvent Glycerol, KRN7000 10 µg/ml", "value": "- (- dissolved)"}, {"measurement": "Judgment of solubility (by naked eye)", "setting": "[2]; solvent Glycerol, KRN7000 100 µg/ml", "value": "+ (+ not dissolved (or deposited))"}, {"measurement": "Judgment of solubility (by naked eye)", "setting": "[2]; solvent Macrogol 400, KRN7000 10 µg/ml", "value": "- (- dissolved)"}, {"measurement": "Judgment of solubility (by naked eye)", "setting": "[2]; solvent Macrogol 400, KRN7000 100 µg/ml", "value": "+ (+ not dissolved (or deposited))"}, {"measurement": "Judgment of solubility (by naked eye)", "setting": "[2]; solvent Propylene glycol, KRN7000 10 µg/ml", "value": "- (- dissolved)"}, {"measurement": "Judgment of solubility (by naked eye)", "setting": "[2]; solvent Propylene glycol, KRN7000 100 µg/ml", "value": "+ (+ not dissolved (or deposited))"}, {"measurement": "Re-solubility after storage (by naked eye)", "setting": "[3]; Mannitol 10%, 1 month", "value": "- (- dissolved)"}, {"measurement": "Re-solubility after storage (by naked eye)", "setting": "[3]; Mannitol 10%, 4 months", "value": "+ (+ not dissolved (or deposited))"}, {"measurement": "Re-solubility after storage (by naked eye)", "setting": "[3]; Sucrose 9.6%, 1 month", "value": "- (- dissolved)"}, {"measurement": "Re-solubility after storage (by naked eye)", "setting": "[3]; Sucrose 9.6%, 4 months", "value": "+ (+ not dissolved (or deposited))"}, {"measurement": "Re-solubility immediately after lyophilization", "setting": "[4]; Fructose 5%", "value": "+ (+ not dissolved (or deposited))"}, {"measurement": "Re-solubility immediately after lyophilization", "setting": "[4]; Fructose 10%", "value": "+ (+ not dissolved (or deposited))"}, {"measurement": "Re-solubility immediately after lyophilization", "setting": "[4]; Glucose 5%", "value": "- (- dissolved)"}, {"measurement": "Re-solubility immediately after lyophilization", "setting": "[4]; Glucose 10%", "value": "+ (+ not dissolved (or deposited))"}, {"measurement": "Re-solubility immediately after lyophilization", "setting": "[4]; Lactose 5%", "value": "+ (+ not dissolved (or deposited))"}, {"measurement": "Re-solubility immediately after lyophilization", "setting": "[4]; Lactose 10%", "value": "+ (+ not dissolved (or deposited))"}, {"measurement": "Re-solubility immediately after lyophilization", "setting": "[4]; Maltose 1.5%", "value": "+ (+ not dissolved (or deposited))"}, {"measurement": "Re-solubility immediately after lyophilization", "setting": "[4]; Maltose 3%", "value": "+ (+ not dissolved (or deposited))"}, {"measurement": "Re-solubility immediately after lyophilization", "setting": "[4]; Mannitol 5%", "value": "+ (+ not dissolved (or deposited))"}, {"measurement": "Re-solubility immediately after lyophilization", "setting": "[4]; Mannitol 10%", "value": "- (- dissolved)"}, {"measurement": "Re-solubility immediately after lyophilization", "setting": "[4]; Sorbitol 5%", "value": "+ (+ not dissolved (or deposited))"}, {"measurement": "Re-solubility immediately after lyophilization", "setting": "[4]; Sorbitol 10%", "value": "+ (+ not dissolved (or deposited))"}, {"measurement": "Re-solubility immediately after lyophilization", "setting": "[4]; Sucrose 4.8%", "value": "- (- dissolved)"}, {"measurement": "Re-solubility immediately after lyophilization", "setting": "[4]; Sucrose 9.6%", "value": "- (- dissolved)"}, {"measurement": "Re-solubility immediately after lyophilization", "setting": "[4]; Xylitol 4.3%", "value": "+ (+ not dissolved (or deposited))"}, {"measurement": "Re-solubility immediately after lyophilization", "setting": "[4]; Xylitol 8.6%", "value": "+ (+ not dissolved (or deposited))"}]}]}
